Test results taken from the NIST ThermoML archive (doi:10.1021/je060355j).

Tests used:
[1] = refractive index (Na D-line) (dimensionless); settings: 101.33 kPa, Liquid
[2] = Liquid; for mass density: 101.32 kPa
[3] = xn = mol fraction of the nth substance listed; settings: 101.32 kPa, Liquid
[4] = excess molar enthalpy (molar enthalpy of mixing); xn = mol fraction of the nth substance listed; settings: 291.15 K, 101.32 kPa, Liquid

CCCOC=O [propyl methanoate]
Settings	mass density, 291.15 K [kg/m3]	mass density, 298.15 K [kg/m3]	mass density, 308.15 K [kg/m3]	mass density, 318.15 K [kg/m3]	refractive index, 291.15 K	refractive index, 298.15 K	refractive index, 318.15 K	vapor or sublimation pressure, 353.92 K [kPa]
[1]	–	–	–	–	1.3778	1.375	1.365	–
[2]	907.8	899.08	888.36	875.32	–	–	–	101.32

CCCCCC [hexane] + CCCOC=O
[3], x2 = 0
Settings	mass density [kg/m3]
291.15 K	661.2
298.15 K	654.89
308.15 K	646.07
318.15 K	636.43

CCCCCC [hexane] + COC=O
[3], x2 = 0
Settings	mass density [kg/m3]
291.15 K	661.2
298.15 K	654.89

CCCCOC=O [butyl methanoate]
Settings	mass density, 291.15 K [kg/m3]	mass density, 298.15 K [kg/m3]	mass density, 308.15 K [kg/m3]	mass density, 318.15 K [kg/m3]	refractive index, 291.15 K	refractive index, 298.15 K	refractive index, 318.15 K	vapor or sublimation pressure, 380.13 K [kPa]
[1]	–	–	–	–	1.3904	1.3872	1.3776	–
[2]	896	888.66	878.24	867.21	–	–	–	101.32

CCCCCC [hexane]
Settings	mass density, 291.15 K [kg/m3]	mass density, 298.15 K [kg/m3]	mass density, 308.15 K [kg/m3]	mass density, 318.15 K [kg/m3]	refractive index, 291.15 K	refractive index, 298.15 K	refractive index, 318.15 K	vapor or sublimation pressure, 341.76 K [kPa]
[1]	–	–	–	–	1.3765	1.372	1.3618	–
[2]	661.2	654.89	646.07	636.43	–	–	–	101.32

COC=O [methyl methanoate]
Settings	mass density, 291.15 K [kg/m3]	mass density, 298.15 K [kg/m3]	refractive index, 291.15 K	refractive index, 298.15 K	vapor or sublimation pressure, 304.7 K [kPa]
[1]	–	–	1.3452	1.3415	–
[2]	976.9	966.54	–	–	101.32

CCCCCC [hexane] + CCOC=O
[3], x2 = 0
Settings	mass density [kg/m3]
291.15 K	661.2
298.15 K	654.89
308.15 K	646.07
318.15 K	636.43

CCOC=O [ethyl methanoate]
Settings	mass density, 291.15 K [kg/m3]	mass density, 298.15 K [kg/m3]	mass density, 308.15 K [kg/m3]	mass density, 318.15 K [kg/m3]	refractive index, 291.15 K	refractive index, 298.15 K	refractive index, 318.15 K	vapor or sublimation pressure, 327.33 K [kPa]
[1]	–	–	–	–	1.3614	1.358	1.3474	–
[2]	924.7	915.16	902.07	888.42	–	–	–	101.32

COC=O [methyl methanoate] + CCCCCC
mass density [kg/m3], [3]
Settings	291.15 K	298.15 K
x1 = 0.019	663	–
x1 = 0.0376	–	659.63
x1 = 0.0499	666.3	–
x1 = 0.0816	–	664.26
x1 = 0.0863	670.6	–
x1 = 0.1013	672.6	–
x1 = 0.1209	675.3	–
x1 = 0.1327	–	670.55
x1 = 0.1642	–	674.8
x1 = 0.2033	687.1	–
x1 = 0.2352	–	685.32
x1 = 0.2936	–	695.29
x1 = 0.2986	702.6	–
x1 = 0.3828	718.9	–
x1 = 0.3903	–	714.41
x1 = 0.4841	742.3	–
x1 = 0.4987	–	740.05
x1 = 0.5462	759.1	–
x1 = 0.5979	–	768.9
x1 = 0.6061	777.4	–
x1 = 0.6987	810.1	–
x1 = 0.7062	–	806.5
x1 = 0.7433	–	821.74
x1 = 0.7445	829.1	–
x1 = 0.7956	851.5	–
x1 = 0.7972	–	845.31
x1 = 0.8392	872.6	–
x1 = 0.8497	–	871.94
x1 = 0.903	908.4	–
x1 = 0.905	–	902.05
x1 = 0.9539	939.9	–
x1 = 0.9582	–	936.28
x1 = 1	976.9	966.54

[4]
Settings	excess molar enthalpy [kcal/mol]
x1 = 0.1408	0.253
x1 = 0.252	0.389
x1 = 0.3379	0.462
x1 = 0.4008	0.492
x1 = 0.4618	0.504
x1 = 0.5094	0.502
x1 = 0.5501	0.493
x1 = 0.5862	0.481
x1 = 0.6157	0.462
x1 = 0.6568	0.439
x1 = 0.7033	0.41
x1 = 0.7517	0.37
x1 = 0.7971	0.33
x1 = 0.845	0.281
x1 = 0.8923	0.219
x1 = 0.9292	0.153
x1 = 0.9665	0.0896

CCCCCC [hexane] + CCCCOC=O
[3], x2 = 0
Settings	mass density [kg/m3]
291.15 K	661.2
298.15 K	654.89
308.15 K	646.07
318.15 K	636.43
